# Measured values from publication PMC6234229, “The role of loops B and C in determining the potentiation of GABAA receptors by midazolam” (Pharmacology Research & Perspectives, 2018).
# Values joined by “and” are separate entries in the source; they are usually repeats but may differ in a detail not shown here. Identical values can stand only once.
# Assays:
# Experiment in all cases: Midazolam potentiation of EC10 GABA currents, whole-cell patch clamp, HEK293T
# Assay type in all cases: cell-based
# [1] = biological target: T1, α1(H102R)β2γ2 GABAA receptor (Homo sapiens, UniProt P14867+P18507+P47870, H129R)
# T1 construct: expressed in transfected cells; host or cells: HEK293T
# T1 sequence (P14867 28-456 H129R): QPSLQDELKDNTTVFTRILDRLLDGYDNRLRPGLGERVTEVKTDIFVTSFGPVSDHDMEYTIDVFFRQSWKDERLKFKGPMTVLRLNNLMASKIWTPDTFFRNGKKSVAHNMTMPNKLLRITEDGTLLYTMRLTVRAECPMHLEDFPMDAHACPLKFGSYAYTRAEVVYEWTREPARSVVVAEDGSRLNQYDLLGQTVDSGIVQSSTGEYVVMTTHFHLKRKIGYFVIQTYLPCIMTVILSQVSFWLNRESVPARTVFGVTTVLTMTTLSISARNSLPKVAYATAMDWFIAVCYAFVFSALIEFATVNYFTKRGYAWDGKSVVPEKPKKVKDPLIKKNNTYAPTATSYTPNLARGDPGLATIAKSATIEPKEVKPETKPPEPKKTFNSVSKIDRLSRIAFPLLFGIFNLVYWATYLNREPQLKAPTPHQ
# T1 sequence (P47870 25-512 limits assumed): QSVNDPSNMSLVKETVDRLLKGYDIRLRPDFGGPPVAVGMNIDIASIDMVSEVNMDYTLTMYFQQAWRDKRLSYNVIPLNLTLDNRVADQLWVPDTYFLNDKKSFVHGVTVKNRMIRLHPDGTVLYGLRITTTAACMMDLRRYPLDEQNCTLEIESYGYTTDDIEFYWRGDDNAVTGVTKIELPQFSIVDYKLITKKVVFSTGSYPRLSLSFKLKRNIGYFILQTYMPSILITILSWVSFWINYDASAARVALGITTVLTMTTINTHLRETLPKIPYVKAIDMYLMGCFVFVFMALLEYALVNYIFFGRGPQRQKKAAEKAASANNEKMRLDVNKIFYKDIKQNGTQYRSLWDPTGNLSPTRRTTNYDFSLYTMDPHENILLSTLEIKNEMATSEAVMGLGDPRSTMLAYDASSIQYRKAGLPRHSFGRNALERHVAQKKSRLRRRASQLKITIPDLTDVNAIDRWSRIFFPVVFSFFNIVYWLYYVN
# T1 sequence (P18507 40-467 isoform P18507-1 limits assumed, stated change not applied): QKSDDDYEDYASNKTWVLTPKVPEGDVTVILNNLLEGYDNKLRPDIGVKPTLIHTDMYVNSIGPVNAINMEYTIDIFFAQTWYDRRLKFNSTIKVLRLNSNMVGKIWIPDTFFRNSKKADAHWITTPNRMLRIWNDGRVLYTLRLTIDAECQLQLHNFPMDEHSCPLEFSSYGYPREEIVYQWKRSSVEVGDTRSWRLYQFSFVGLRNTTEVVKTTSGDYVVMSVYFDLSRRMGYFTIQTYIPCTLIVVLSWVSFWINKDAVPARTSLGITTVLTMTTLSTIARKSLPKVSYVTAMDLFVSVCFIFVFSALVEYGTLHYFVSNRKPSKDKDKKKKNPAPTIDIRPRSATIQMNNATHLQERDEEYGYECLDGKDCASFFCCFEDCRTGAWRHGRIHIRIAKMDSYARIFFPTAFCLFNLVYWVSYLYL
# From the text: (§1) Human (Homo sapiens) GABAA subunits (α1‐6, β2, γ2s) were subcloned into pcDNA3.1+ vectors with a cytomegalovirus (CMV) promoter. The hβ2 and hα3 sequences were humanized rat (Rattus norvegicus) cDNA with amino acid substitutions made to match the human protein sequence. The α1‐3, α5, β2, and γ2s subunits were a generous gift from Neil L. Harrison (Columbia University Medical Center, NY). The α4 subunit was obtained from GenScript (Piscataway, NJ), and the α6 subunit was a generous gift from Robert L. McDonald (Vanderbilt University, TN). All point mutations (listed in Figure 1C) were introduced using the QuikChange Lightening site‐directed mutagenesis kit (Agilent Technologies, Santa Clara, CA) according to the manufacturer's instructions and were confirmed by sequencing (Eurofins MWG Operon, Louisville, KY).
# (§2) Human embryonic kidney cells containing the SV40 T‐antigen (HEK293T) were acquired from American Type Culture Collection (ATCC®, Manassas, VA), catalogue number, CRL3216. HEK293T cells were maintained at 37°C and 5% CO2 in Eagle Minimum Essential Medium (MEM) supplemented with 5% fetal bovine serum (Atlanta Biologicals Inc., Flowery Branch, GA), 40 μM L‐glutamine, 100 U/mL penicillin and 0.1 mM streptomycin. Cells were passaged regularly when they reached 70% confluency using trypsin. Cells were not passaged more than 22 times. New cells were revived from frozen stocks at passage 2‐4. Cells used for in vitro electrophysiology experiments were grown on poly‐D‐lysine‐coated glass coverslips (No.2, VWR, Radnor, PA) and transfected with X‐tremeGENE (Roche Diagnostics, Indianapolis, IN) with the desired receptor subunit cDNAs at a 1:1:1 ratio to express αxβ2γ2s receptors (2 μg total cDNA) and with 0.5 μg green fluorescent protein (GFP) as an expression marker. The γ2s incorporation into receptors was tested with zinc inhibition assays regularly.24 Patch clamp experiments were performed on cells at 24‐72 hours post‐transfection. All experiments were performed at 22°C. Experiments consisted of at least five cells recorded per day from at least two transfections across 3‐4 days to control for cell health and transfection efficiency. At least three cells expressing wild‐type receptors were recorded on days that mutant receptors were tested to provide a time‐matched expression control. All reagents were purchased from Sigma‐Aldrich (St. Louis, MO) unless otherwise stated.
# (§3) Extracellular solution contained 161 mM NaCl, 3 mM KCl, 1 mM MgCl2, 1.5 mM CaCl2, 10 mM HEPES, and 6 mM D‐glucose, adjusted to pH 7.4 with NaOH (320‐330 mOsm). […] The perfusion system was controlled by protocols written in pClamp 9 (Molecular Devices, LLC., Sunnyvale, CA). Whole‐cell currents were recorded at ‐60 mV, filtered at 100 Hz and sampled at 200 Hz with a MultiClamp 700B amplifier (Molecular Devices, LLC) and DigiData 1322A (Molecular Devices, LLC) digitizer. […] Cells were recorded with the midazolam protocol no more than two times to avoid desensitization and incomplete washout or irreversible modulation.
# (§4) Recordings were analyzed using MATLAB (Math Works, Inc., Natick, MA). […] The maximum peak current, EC50 and Hill coefficient were estimated for assays from each cell. When Hill parameters are estimated from whole‐cell recordings, the changes in the parameters across receptor conditions can be ascribed to the following changes in receptor physiology. Changes in maximum current can be due to changes in the single‐channel conductance or the rate of desensitization. Changes in cell surface receptor expression can cause minor changes in maximum current, but are unlikely to occur in the time course of our experimental protocol. […] More often minor changes in the Hill coefficient are attributed to the altered homogeneity in the receptor population expressed by the HEK293T cell. For example, a shallower Hill coefficient could be caused by a shift in the population of receptors from mostly αβγ receptors to a combination of both αβ and αβγ receptors.
# [2] = biological target: T2, α1(S206I)β2γ2 GABAA receptor (Homo sapiens, UniProt P14867+P18507+P47870, S233I)
# T2 construct: expressed in transfected cells; host or cells: HEK293T
# T2 sequence (P14867 28-456 S233I): as the sequence (P14867 28-456 H129R) above, with R102H, S206I counted along it
# T2 sequence (P47870 25-512 limits assumed, stated change not applied): as the sequence (P47870 25-512 limits assumed) above
# T2 sequence (P18507 40-467 isoform P18507-1 limits assumed, stated change not applied): as the sequence (P18507 40-467 isoform P18507-1 limits assumed, stated change not applied) above
# From the text: as §1, §2, §3, §4
# [3] = biological target: T3, α2(T162P)β2γ2 GABAA receptor (Homo sapiens, UniProt P18507+P47869+P47870, T190P)
# T3 construct: expressed in transfected cells; host or cells: HEK293T
# T3 sequence (P47869 29-451 T190P): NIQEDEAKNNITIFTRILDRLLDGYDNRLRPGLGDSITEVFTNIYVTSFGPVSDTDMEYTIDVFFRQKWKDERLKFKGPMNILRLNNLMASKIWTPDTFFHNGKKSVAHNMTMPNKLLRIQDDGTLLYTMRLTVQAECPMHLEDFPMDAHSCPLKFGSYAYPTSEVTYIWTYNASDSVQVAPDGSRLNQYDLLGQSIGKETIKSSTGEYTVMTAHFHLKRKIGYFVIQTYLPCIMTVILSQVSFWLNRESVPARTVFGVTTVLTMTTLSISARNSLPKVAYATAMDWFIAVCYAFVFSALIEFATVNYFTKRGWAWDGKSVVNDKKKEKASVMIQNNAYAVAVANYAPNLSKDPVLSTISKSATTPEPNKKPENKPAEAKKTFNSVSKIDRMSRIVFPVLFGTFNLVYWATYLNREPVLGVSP
# T3 sequence (P47870 25-512 limits assumed): as the sequence (P47870 25-512 limits assumed) above
# T3 sequence (P18507 40-467 isoform P18507-1 limits assumed, stated change not applied): as the sequence (P18507 40-467 isoform P18507-1 limits assumed, stated change not applied) above
# From the text: as §1, §2, §3, §4
# α2β2γ2 GABAA receptor = biological target: T4, α2β2γ2 GABAA receptor (Homo sapiens, UniProt P18507+P47869+P47870)
# T4 construct: expressed in transfected cells; host or cells: HEK293T
# T4 sequence (P47869 29-451): as the sequence (P47869 29-451 T190P) above, with P162T counted along it
# T4 sequence (P47870 25-512 limits assumed): as the sequence (P47870 25-512 limits assumed) above
# T4 sequence (P18507 40-467 isoform P18507-1 limits assumed): as the sequence (P18507 40-467 isoform P18507-1 limits assumed, stated change not applied) above
# From the text: as §1, §2, §3, §4
# [4] = biological target: T5, α3(S230I)β2γ2 GABAA receptor (Homo sapiens, UniProt P18507+P34903+P47870, S258I)
# T5 construct: expressed in transfected cells; host or cells: HEK293T
# T5 sequence (P34903 29-492 S258I): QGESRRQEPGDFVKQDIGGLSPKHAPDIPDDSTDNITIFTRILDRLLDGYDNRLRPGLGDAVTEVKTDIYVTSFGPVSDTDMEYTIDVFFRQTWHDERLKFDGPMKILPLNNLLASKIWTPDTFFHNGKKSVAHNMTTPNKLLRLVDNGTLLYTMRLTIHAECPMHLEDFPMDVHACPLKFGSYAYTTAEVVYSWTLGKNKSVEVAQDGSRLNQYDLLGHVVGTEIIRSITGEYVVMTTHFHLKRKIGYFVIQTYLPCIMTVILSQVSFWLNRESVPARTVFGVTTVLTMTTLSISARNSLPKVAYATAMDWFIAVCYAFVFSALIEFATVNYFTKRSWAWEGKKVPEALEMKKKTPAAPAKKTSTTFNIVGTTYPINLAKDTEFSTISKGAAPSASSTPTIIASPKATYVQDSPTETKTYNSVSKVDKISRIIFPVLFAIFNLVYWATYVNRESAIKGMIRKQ
# T5 sequence (P47870 25-512 limits assumed): as the sequence (P47870 25-512 limits assumed) above
# T5 sequence (P18507 40-467 isoform P18507-1 limits assumed, stated change not applied): as the sequence (P18507 40-467 isoform P18507-1 limits assumed, stated change not applied) above
# From the text: as §1, §2, §3, §4
# [5] = biological target: T6, α5(P166T)β2γ2 GABAA receptor (Homo sapiens, UniProt P18507+P31644+P47870, P197T)
# T6 construct: expressed in transfected cells; host or cells: HEK293T
# T6 sequence (P31644 32-462 P197T): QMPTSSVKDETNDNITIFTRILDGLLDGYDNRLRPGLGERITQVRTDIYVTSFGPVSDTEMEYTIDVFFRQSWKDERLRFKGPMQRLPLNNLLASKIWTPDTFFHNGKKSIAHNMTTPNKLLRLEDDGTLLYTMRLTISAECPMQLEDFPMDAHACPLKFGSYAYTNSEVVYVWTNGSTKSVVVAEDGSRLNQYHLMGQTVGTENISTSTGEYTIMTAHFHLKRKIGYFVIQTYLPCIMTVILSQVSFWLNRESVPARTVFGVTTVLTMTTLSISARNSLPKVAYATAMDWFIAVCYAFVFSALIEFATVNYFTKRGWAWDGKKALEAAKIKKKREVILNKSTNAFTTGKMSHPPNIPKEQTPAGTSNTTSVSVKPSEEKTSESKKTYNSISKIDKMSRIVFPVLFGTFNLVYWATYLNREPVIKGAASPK
# T6 sequence (P47870 26-474 isoform P47870-1 limits assumed, stated change not applied): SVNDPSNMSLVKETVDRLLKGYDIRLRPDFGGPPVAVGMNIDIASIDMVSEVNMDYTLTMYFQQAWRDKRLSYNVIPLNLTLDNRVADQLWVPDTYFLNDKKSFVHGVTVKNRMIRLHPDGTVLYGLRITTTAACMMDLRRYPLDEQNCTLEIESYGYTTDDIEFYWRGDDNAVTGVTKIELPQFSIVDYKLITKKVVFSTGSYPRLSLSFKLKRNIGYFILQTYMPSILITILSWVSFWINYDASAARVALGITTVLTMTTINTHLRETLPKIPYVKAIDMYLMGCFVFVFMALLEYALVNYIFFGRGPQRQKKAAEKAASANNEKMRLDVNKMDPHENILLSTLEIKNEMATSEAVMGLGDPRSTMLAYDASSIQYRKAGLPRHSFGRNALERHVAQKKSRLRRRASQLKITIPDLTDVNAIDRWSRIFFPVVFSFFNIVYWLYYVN
# T6 sequence (P18507 40-467 isoform P18507-1 limits assumed, stated change not applied): as the sequence (P18507 40-467 isoform P18507-1 limits assumed, stated change not applied) above
# From the text: as §1, §2, §3, §4
# α6β2γ2 GABAA receptor = biological target: T7, α6β2γ2 GABAA receptor (Homo sapiens, UniProt P18507+P47870+Q16445); conditions: for Midazolam potentiation (%): α6β2γ2
# T7 construct: expressed in transfected cells; host or cells: HEK293T
# T7 sequence (Q16445 20-453): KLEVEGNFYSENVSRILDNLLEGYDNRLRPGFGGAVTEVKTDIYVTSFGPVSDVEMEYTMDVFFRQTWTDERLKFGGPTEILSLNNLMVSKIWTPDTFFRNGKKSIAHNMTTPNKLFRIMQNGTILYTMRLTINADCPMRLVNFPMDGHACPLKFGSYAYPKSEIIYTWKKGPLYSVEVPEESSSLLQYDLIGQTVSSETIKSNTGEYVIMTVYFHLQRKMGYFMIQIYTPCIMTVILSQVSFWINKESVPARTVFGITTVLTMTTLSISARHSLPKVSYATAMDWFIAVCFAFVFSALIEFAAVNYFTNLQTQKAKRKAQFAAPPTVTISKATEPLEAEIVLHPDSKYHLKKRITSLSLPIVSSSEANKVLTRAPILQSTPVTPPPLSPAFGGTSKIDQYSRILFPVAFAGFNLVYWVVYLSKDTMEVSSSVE
# T7 sequence (P47870 26-474 isoform P47870-1 limits assumed): as the sequence (P47870 26-474 isoform P47870-1 limits assumed, stated change not applied) above
# T7 sequence (P18507 40-467 isoform P18507-1 limits assumed): as the sequence (P18507 40-467 isoform P18507-1 limits assumed, stated change not applied) above
# From the text: as §1, §2, §3, §4
structure (smiles),measurement,setting,value
Cc1ncc2n1-c1ccc(Cl)cc1C(c1ccccc1F)=NC2 [midazolam],responsiveness to midazolam potentiation,[1],abolished the ability of receptors to respond to midazolam potentiation
same,Midazolam potentiation (%),[1]; 10 nM MDZ + EC10 GABA,8.10 ± 3.48%
same,Midazolam potentiation (%),[1]; 50 nM MDZ + EC10 GABA,13.07 ± 4.69%
same,Midazolam potentiation (%),[1]; 100 nM MDZ + EC10 GABA,16.99 ± 4.42%
same,Midazolam potentiation (%),[1]; 500 nM MDZ + EC10 GABA,26.78 ± 5.31%
same,Midazolam potentiation (%),[1]; 1000 nM MDZ + EC10 GABA,28.87 ± 6.18%
same,EC50,[2],59.8 ± 4.11 nM
same,Midazolam potentiation (%),"[2]; 10 nM MDZ + EC10 GABA, α1(S206I)",13.37 ± 5.70%
same,Midazolam potentiation (%),"[2]; 50 nM MDZ + EC10 GABA, α1(S206I)",44.00 ± 10.96%
same,Midazolam potentiation (%),"[2]; 100 nM MDZ + EC10 GABA, α1(S206I)",80.14 ± 17.04%
same,Midazolam potentiation (%),"[2]; 500 nM MDZ + EC10 GABA, α1(S206I)",107.07 ± 22.95%
same,Midazolam potentiation (%),"[2]; 1000 nM MDZ + EC10 GABA, α1(S206I)",108.21 ± 24.13%
same,Max potentiation (%),"[2]; α1(S206I), Hill fit, midazolam 10-1000 nM + EC10 GABA",135.8 ± 23.8% and 135.8 ± 23.78 %
same,Hill coefficient,"[2]; α1(S206I), midazolam Hill fit",1.568 ± 0.199
same,EC50,[3],42 ± 2.86 nM
same,Midazolam potentiation (%),"[3]; 10 nM MDZ + EC10 GABA, α2(T162P)",26.45 ± 4.06%
same,Midazolam potentiation (%),"[3]; 50 nM MDZ + EC10 GABA, α2(T162P)",81.24 ± 9.43%
same,Midazolam potentiation (%),"[3]; 100 nM MDZ + EC10 GABA, α2(T162P)",129.24 ± 14.94%
same,Midazolam potentiation (%),"[3]; 500 nM MDZ + EC10 GABA, α2(T162P)",156.21 ± 15.70%
same,Midazolam potentiation (%),"[3]; 1000 nM MDZ + EC10 GABA, α2(T162P)",150.36 ± 15.00%
same,Max potentiation (%),"[3]; α2(T162P), Hill fit, midazolam 10-1000 nM + EC10 GABA",158.2 ± 15.8%
same,Hill coefficient,"[3]; α2(T162P), midazolam Hill fit",1.393 ± 0.073
same,EC50,α2β2γ2 GABAA receptor,50.9 ± 5.05 nM
same,Midazolam potentiation (%),"α2β2γ2 GABAA receptor; 10 nM MDZ + EC10 GABA, α2β2γ2",19.47 ± 4.19%
same,Midazolam potentiation (%),"α2β2γ2 GABAA receptor; 50 nM MDZ + EC10 GABA, α2β2γ2",69.08 ± 17.73%
same,Midazolam potentiation (%),"α2β2γ2 GABAA receptor; 100 nM MDZ + EC10 GABA, α2β2γ2",128.98 ± 36.14%
same,Midazolam potentiation (%),"α2β2γ2 GABAA receptor; 500 nM MDZ + EC10 GABA, α2β2γ2",167.38 ± 49.89%
same,Midazolam potentiation (%),"α2β2γ2 GABAA receptor; 1000 nM MDZ + EC10 GABA, α2β2γ2",165.35 ± 48.98%
same,Max potentiation (%),"α2β2γ2 GABAA receptor; α2β2γ2, Hill fit, midazolam 10-1000 nM + EC10 GABA",169.6 ± 49.9%
same,Hill coefficient,"α2β2γ2 GABAA receptor; α2β2γ2, midazolam Hill fit",1.743 ± 0.133
same,Midazolam potentiation (%),"[4]; 10 nM MDZ + EC10 GABA, α3(S230I)",37.59 ± 4.12%
same,Midazolam potentiation (%),"[4]; 50 nM MDZ + EC10 GABA, α3(S230I)",139.86 ± 12.63%
same,Midazolam potentiation (%),"[4]; 100 nM MDZ + EC10 GABA, α3(S230I)",280.95 ± 24.73%
same,Midazolam potentiation (%),"[4]; 500 nM MDZ + EC10 GABA, α3(S230I)",413.27 ±37.70%
same,Midazolam potentiation (%),"[4]; 1000 nM MDZ + EC10 GABA, α3(S230I)",428.92 ± 38.09%
same,EC50,"[4]; EC50 (nM), α3(S230I), midazolam potentiation of EC10 GABA",73.6 nM
same,enhancement of maximum midazolam potentiation relative to wildtype,[4]; α3(S230I) vs α3β2γ2,approximately 63%
same,Max potentiation (%),"[4]; α3(S230I), Hill fit, midazolam 10-1000 nM + EC10 GABA",436.0 ± 39.4%
same,Hill coefficient,"[4]; α3(S230I), midazolam Hill fit",1.655 ± 0.061
same,EC50,[5],53.3 ± 5.54 nM
same,Midazolam potentiation (%),"[5]; 10 nM MDZ + EC10 GABA, α5(P166T)",13.32 ± 1.68%
same,Midazolam potentiation (%),"[5]; 50 nM MDZ + EC10 GABA, α5(P166T)",54.02 ± 5.66%
same,Midazolam potentiation (%),"[5]; 100 nM MDZ + EC10 GABA, α5(P166T)",106.37 ± 15.09%
same,Midazolam potentiation (%),"[5]; 500 nM MDZ + EC10 GABA, α5(P166T)",134.76 ± 21.59%
same,Midazolam potentiation (%),"[5]; 1000 nM MDZ + EC10 GABA, α5(P166T)",141.51 ± 25.59%
same,Max potentiation (%),"[5]; α5(P166T), Hill fit, midazolam 10-1000 nM + EC10 GABA",140.7 ± 23.7%
same,Hill coefficient,"[5]; α5(P166T), midazolam Hill fit",3.661 ± 1.897
same,Midazolam potentiation (%),α6β2γ2 GABAA receptor; 10 nM MDZ + EC10 GABA,14.66 ± 3.92%
same,Midazolam potentiation (%),α6β2γ2 GABAA receptor; 50 nM MDZ + EC10 GABA,14.55 ± 3.86%
same,Midazolam potentiation (%),α6β2γ2 GABAA receptor; 100 nM MDZ + EC10 GABA,14.58 ± 4.87%
same,Midazolam potentiation (%),α6β2γ2 GABAA receptor; 500 nM MDZ + EC10 GABA,11.15 ± 6.25%
same,Midazolam potentiation (%),α6β2γ2 GABAA receptor; 1000 nM MDZ + EC10 GABA,23.34 ± 4.23%
same,responsiveness to midazolam potentiation,α6β2γ2 GABAA receptor; wildtype α6β2γ2,no notable midazolam potentiation
